Experimental data: publication PMC12203311, “Design, synthesis, in silico and in vitro evaluation of pyrrole–indole hybrids as dual tubulin and aromatase inhibitors with potent anticancer activities” (RSC Advances, 2025)

What was measured:
Assay in all cases: NCI60 five-dose screen
MCF7 = format: cell-based; conditions: Homo sapiens, MCF7, breast cancer
SK-MEL-5 = format: cell-based, human; conditions: Homo sapiens
EKVX = format: cell-based; conditions: Homo sapiens, NSC lung cancer
MDA-MB-231/ATCC = format: cell-based; conditions: Homo sapiens, breast cancer
HL-60 (TB) = format: cell-based; conditions: Homo sapiens, leukemia
UACC-62 = format: cell-based; conditions: Homo sapiens, UACC-62, melanoma
UACC-257 = format: cell-based; conditions: Homo sapiens, UACC-257, melanoma
SNB-75 = format: cell-based; conditions: Homo sapiens, SNB-75, CNS cancer
DU-145 = format: cell-based; conditions: Homo sapiens, DU-145, prostate cancer
NCI-H522 = format: cell-based; conditions: Homo sapiens, NCI-H522, NSC lung cancer
COLO 205 = format: cell-based, human; conditions: Homo sapiens
IGROV1 = format: cell-based; conditions: Homo sapiens, IGROV-1; IGROV1, ovarian cancer
OVCAR-4 = format: cell-based; conditions: Homo sapiens, OVCAR-4, ovarian cancer
RPMI-8226 = format: cell-based; conditions: Homo sapiens, RPMI-8226, leukemia
U251 = format: cell-based; conditions: Homo sapiens, U-251, U251, CNS cancer
SNB-19 = format: cell-based; conditions: Homo sapiens, SNB-19, CNS cancer
NCI-H460 = format: cell-based; conditions: Homo sapiens, NCI-H460, NSC lung cancer
PC-3 = format: cell-based; conditions: Homo sapiens, PC-3, prostate cancer
NCI-H23 = format: cell-based; conditions: Homo sapiens, NCI-H23, NSC lung cancer
ACHN = format: cell-based; conditions: Homo sapiens, renal cancer
K-562 = format: cell-based; conditions: Homo sapiens, K562, K-562, leukemia
A549/ATCC = format: cell-based; conditions: Homo sapiens, NSC lung cancer
SF-295 = format: cell-based; conditions: Homo sapiens, SF-295, CNS cancer
SK-OV-3 = format: cell-based; conditions: Homo sapiens, SK-OV-3, ovarian cancer
SK-MEL-2 = format: cell-based; conditions: Homo sapiens, SK-MEL-2, melanoma
TK-10 = format: cell-based; conditions: Homo sapiens, TK-10, renal cancer
BT-549 = format: cell-based; conditions: Homo sapiens, BT-549, breast cancer
OVCAR-3 = format: cell-based; conditions: Homo sapiens, OVCAR-3, ovarian cancer
NCI/ADR-RES = format: cell-based, human; conditions: Homo sapiens, ovarian cancer
HOP-62 = format: cell-based; conditions: Homo sapiens, HOP-62, NSC lung cancer
CAKI-1 = format: cell-based; conditions: Homo sapiens, CAKI-1, renal cancer
HCT-15 = format: cell-based; conditions: Homo sapiens, HCT-15, colon cancer
SN12C = format: cell-based; conditions: Homo sapiens, renal cancer
OVCAR-8 = format: cell-based; conditions: Homo sapiens, OVCAR-8, ovarian cancer
LOX IMVI = format: cell-based; conditions: Homo sapiens, melanoma
SK-MEL-28 = format: cell-based; conditions: Homo sapiens, SK-MEL-28, melanoma
[1] = read-out: LC50 (the source's name)

## O=C(N/N=C/c1ccc([N+](=O)[O-])[nH]1)c1[nH]c2ccc(Br)cc2c1-c1ccccc1 [Derivative 3p, (E)-5-Bromo-N′-((5-nitro-1H-pyrrol-2-yl)methylene)-3-phenyl-1H-indole-2-carbohydrazide]
MCF7
  GI50: 0.394 µM
MCF7; [1]
  CC50: 39 µM
SK-MEL-5; SK-MEL-5, SK-MEL-5, melanoma, read-out: LC50 (the source's name)
  CC50: 8.69 µM
SK-MEL-5; SK-MEL-5, melanoma
  GI50: 1.02 µM
EKVX
  GI50: 5.37 µM
EKVX; [1]
  CC50: 45.7 µM
MDA-MB-231/ATCC
  GI50: 2.14 µM
MDA-MB-231/ATCC; [1]
  CC50: 46.6 µM
HL-60 (TB)
  GI50: 0.374 µM
HL-60 (TB); [1]
  CC50: > 100 µM
UACC-62
  GI50: 0.451 µM
UACC-62; [1]
  CC50: 40.9 µM
UACC-257
  GI50: 3.12 µM
UACC-257; [1]
  CC50: 48.2 µM
SNB-75
  GI50: 0.482 µM
SNB-75; [1]
  CC50: 40.5 µM
DU-145
  GI50: 1.84 µM
DU-145; [1]
  CC50: 32.5 µM
NCI-H522
  GI50: 0.588 µM
NCI-H522; [1]
  CC50: 19.8 µM
COLO 205; COLO 205, COLO 205, colon cancer, read-out: LC50 (the source's name)
  CC50: 8.08 µM
COLO 205; COLO 205, colon cancer
  GI50: 1.52 µM
IGROV1
  GI50: 1.48 µM
OVCAR-4
  GI50: 0.679 µM
OVCAR-4; [1]
  CC50: 35.9 µM
RPMI-8226
  GI50: 0.468 µM
RPMI-8226; [1]
  CC50: > 100 µM
U251
  GI50: 0.987 µM
U251; [1]
  CC50: 39.2 µM
SNB-19
  GI50: 3.34 µM
SNB-19; [1]
  CC50: 42.4 µM
NCI-H460
  GI50: 0.421 µM
NCI-H460; [1]
  CC50: 45.9 µM
PC-3
  GI50: 1.2 µM
PC-3; [1]
  CC50: 78.5 µM
NCI-H23
  GI50: 1.45 µM
NCI-H23; [1]
  CC50: 35.4 µM
ACHN
  GI50: 1.26 µM
ACHN; [1]
  CC50: 38 µM
K-562
  GI50: 0.365 µM
K-562; [1]
  CC50: > 100 µM
A549/ATCC
  GI50: 2.23 µM
A549/ATCC; [1]
  CC50: 44.9 µM
SF-295
  GI50: 0.413 µM
SF-295; [1]
  CC50: 29.9 µM
SK-OV-3
  GI50: 2.95 µM
SK-OV-3; [1]
  CC50: 43 µM
SK-MEL-2
  GI50: 2.18 µM
SK-MEL-2; [1]
  CC50: 36.5 µM
TK-10
  GI50: 12.2 µM
TK-10; [1]
  CC50: 53.8 µM
BT-549
  GI50: 1.52 µM
BT-549; [1]
  CC50: 28.4 µM
OVCAR-3
  GI50: 0.602 µM
OVCAR-3; [1]
  CC50: 34.8 µM
NCI/ADR-RES
  GI50: 0.285 µM
NCI/ADR-RES; [1]
  CC50: 16.2 µM
HOP-62
  GI50: 0.606 µM
HOP-62; [1]
  CC50: 39.5 µM
CAKI-1
  GI50: 0.411 µM
CAKI-1; [1]
  CC50: 34.9 µM
HCT-15
  GI50: 0.607 µM
HCT-15; [1]
  CC50: 35.7 µM
SN12C
  GI50: 1.24 µM
SN12C; [1]
  CC50: 36.7 µM
OVCAR-8
  GI50: 1.02 µM
OVCAR-8; [1]
  CC50: 39 µM
LOX IMVI
  GI50: 0.519 µM
LOX IMVI; [1]
  CC50: 35.8 µM
SK-MEL-28
  GI50: 2.24 µM
SK-MEL-28; [1]
  CC50: 43.5 µM
